Experimental data from US20150125889A1, “IN VITRO DETECTION OF MICROORGANISMS WITH AZOREDUCTASE ACTIVITY” (BIOMÉRIEUX, priority 2012, published 2015).

Assay: Test of reduction of Methyl red by food matrices (Example 3)
Set-up: key to Increase in fluorescence over 24 hours: The symbol “−” means that there is no growth or increase in fluorescence of the medium indicating a reduction of the substrate over 24 hours
Settings: for Increase in fluorescence over 24 hours: 35 mg/l of Methyl red in TSB, 250 nm/395 nm, 35° C.
Experimental: Nine food matrices, some of which have high enzymatic activity (for which the use of Tempo®TVC is not recommended), listed in Table VIII, are tested, in a microtitration plate, in the presence of 35 mg/l of Methyl red in TSB medium to which is added an antimicrobial cocktail combining 200 mg/l of chloramphenicol and 6 mg/l of gentamycin to inhibit the growth of bacteria and fungi. The matrices are tested at different concentrations: 1/400, 1/4000 and […]. To do this, 10 g of matrices are weighed out and dispersed by stomaching in 90 ml of Tryptone-salt solution, which corresponds to a 1/10 dilution, from which the test dilutions are made. The reduction of the substrate and the growth of the microorganisms are monitored using an Infinite® M200 Tecan microplate reader at 35° C. over 24 hours. The reduction of the Methyl red is monitored by reading the fluorescence with the wavelength pair 250 nm/395 nm. The potential growth of microorganisms is monitored by reading the absorbance at 660 nm. The symbol “−” means that there is no growth or increase in fluorescence of the medium indicating a reduction of the substrate over 24 hours.

## CN(C)c1ccc(/N=N/c2ccccc2C(=O)O)cc1 [Methyl red]
Avocado + ATB
  Increase in fluorescence over 24 hours: −
Brie de Meaux AOC cheese + ATB
  Increase in fluorescence over 24 hours: −
Fresh tagliatelle + ATB
  Increase in fluorescence over 24 hours: −
Melon + ATB
  Increase in fluorescence over 24 hours: −
Microfiltered whole milk + ATB
  Increase in fluorescence over 24 hours: −
Mussels + ATB
  Increase in fluorescence over 24 hours: −
Pink shrimps + ATB
  Increase in fluorescence over 24 hours: −
Raw calf liver + ATB
  Increase in fluorescence over 24 hours: −
Salami + ATB
  Increase in fluorescence over 24 hours: −
Nine food matrices with antimicrobial cocktail, no growth of microorganisms
  reduction of the Methyl red by the food matrix (text on Table IX): no reduction
